Results published in patent US11731943B2, “Therapeutic compounds, compositions and methods of use thereof” (priority 2016, dated 2023).

Columns and labels:
[1] = biological target: isolated recombinant JAK1 kinase domain (Homo sapiens (Human), UniProt P23458); assay: JAK1 enzyme assay (Caliper LabChip, Ki); format: biochemical; conditions: read-out: JAK1 Ki
Summary of the method: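 Ki derived via Morrison tight-binding model, ATP-competitive correction applied. Read-out: product/total ratio of a 5-carboxyfluorescein-tagged JAK3 peptide separated on Caliper LabChip after phosphorylation by isolated human JAK1 kinase domain (22 °C, 30 min; EDTA quench, 50 mM final).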

[2] = biological target: isolated recombinant JAK2 kinase domain (Homo sapiens (Human), UniProt O60674); assay: JAK2 enzyme assay (Caliper LabChip, Ki); format: biochemical
Summary of the method: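 Caliper LabChip readout of phosphorylated product as a fraction of total substrate, a fluorescently N-terminally labelled JAK3-derived peptide. Isolated human JAK kinase domains were incubated 30 min at 22 °C before EDTA quench (50 mM final).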

[3] = test system: JAK1-dependent STAT6 phosphorylation downstream of IL-13 stimulation in BEAS-2B human bronchial epithelial cells; assay: JAK1 pathway assay in BEAS-2B cells (IL-13-pSTAT6, MSD); format: cell-based; conditions: Homo sapiens, BEAS-2B, BEAS-2B cells, IL-13 stimulation; read-out: IL-13 p-STAT6 BEAS-2B IC50

isolated recombinant JAK1 kinase domain, sequence (P23458 875-1153): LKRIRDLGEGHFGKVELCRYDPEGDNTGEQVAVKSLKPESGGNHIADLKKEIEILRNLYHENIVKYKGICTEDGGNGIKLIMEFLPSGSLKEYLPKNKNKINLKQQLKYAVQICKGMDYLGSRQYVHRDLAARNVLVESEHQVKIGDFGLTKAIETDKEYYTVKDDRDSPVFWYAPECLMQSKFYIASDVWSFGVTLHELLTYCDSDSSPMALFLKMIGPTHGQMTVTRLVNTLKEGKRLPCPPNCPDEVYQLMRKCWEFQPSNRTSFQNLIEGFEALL
isolated recombinant JAK2 kinase domain, sequence (O60674 849-1124): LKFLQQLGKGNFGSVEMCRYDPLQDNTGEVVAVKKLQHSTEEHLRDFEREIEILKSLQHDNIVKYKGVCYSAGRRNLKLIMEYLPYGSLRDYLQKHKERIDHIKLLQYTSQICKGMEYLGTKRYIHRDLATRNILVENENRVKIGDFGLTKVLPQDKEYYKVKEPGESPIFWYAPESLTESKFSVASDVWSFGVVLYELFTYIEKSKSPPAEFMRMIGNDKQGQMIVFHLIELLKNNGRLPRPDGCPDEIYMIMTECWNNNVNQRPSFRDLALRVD

SMILES	Ki [1] [nM]	Ki [2] [nM]	IC50 [3] [nM]
COC(=O)Nc1nn(C2(CC#N)CCN(Cc3ccc(C4=CCCC4)cc3)CC2F)cc1C(N)=O (stereo not drawn) [Example 268, methyl N-[4-carbamoyl-1-[4-(cyanomethyl)-1-[[4-(cyclopenten-1-yl)phenyl]methyl]-3-fluoro-4-piperidyl]pyrazol-3-yl]carbamate]	0.9	1.9	43
COC(=O)Nc1nn(C2(CC#N)CCN(Cc3ccc(C4=CCCC4)c(O)c3)CC2F)cc1C(N)=O (stereo not drawn) [Example 269, methyl N-[4-carbamoyl-1-[4-(cyanomethyl)-1-[[4-(cyclopenten-1-yl)-3-hydroxy-phenyl]methyl]-3-fluoro-4-piperidyl]pyrazol-3-yl]carbamate]	0.6	0.55	35
C#Cc1ccc(CN2CCC(CC#N)(n3cc(C(N)=O)c(NC(=O)OC)n3)C(F)C2)cc1 (stereo not drawn) [Example 270, methyl N-[4-carbamoyl-1-[4-(cyanomethyl)-1-[(4-ethynylphenyl)methyl]-3-fluoro-4-piperidyl]pyrazol-3-yl]carbamate]	0.41	0.9	21
N#CCC1(n2cc(C(N)=O)c(NC(=O)C3CC3)n2)CCN(Cc2ccc(C3CCCCC3)cc2)CC1F (stereo not drawn) [Example 271, 1-[4-(cyanomethyl)-1-[(4-cyclohexylphenyl)methyl]-3-fluoro-4-piperidyl]-3-(cyclopropanecarbonylamino) pyrazole-4-carboxamide]	2.6	15	83
COC(=O)Nc1nn(C2(CC#N)CCN(Cc3ccc(C4=CCCC4)nc3F)CC2F)cc1C(N)=O (stereo not drawn) [Example 272, methyl N-[4-carbamoyl-1-[4-(cyanomethyl)-1-[[6-(cyclopenten-1-yl)-2-fluoro-3-pyridyl]methyl]-3-fluoro-4-piperidyl]pyrazol-3-yl]carbamate]	0.68	1.6	67
COC(=O)Nc1nn(C2(CC#N)CCN(Cc3cc(O)ccc3Cl)CC2F)cc1C(N)=O (stereo not drawn) [Example 273, methyl N-[4-carbamoyl-1-[1-[(2-chloro-5-hydroxy-phenyl)methyl]-4-(cyanomethyl)-3-fluoro-4-piperidyl]pyrazol-3-yl]carbamate]	0.33	0.31	75
C=C(C)c1cc(F)c(CN2CCC(CC#N)(n3cc(C(N)=O)c(NC(=O)OC)n3)C(F)C2)cc1O (stereo not drawn) [Example 274, methyl N-[4-carbamoyl-1-[4-(cyanomethyl)-3-fluoro-1-[(2-fluoro-5-hydroxy-4-isopropenyl-phenyl)methyl]-4-piperidyl]pyrazol-3-yl]carbamate]	0.58	0.61	38
N#CCC1(n2cc(C(N)=O)c(NC(=O)C3CC3)n2)CCC(Nc2ccc(C3=CCCC3)cc2)CC1 (stereo not drawn) [Example 275, 1-[1-(cyanomethyl)-4-[4-(cyclopenten-1-yl)anilino]cyclohexyl]-3-(cyclopropanecarbonylamino) pyrazole-4-carboxamide]	1.1	8.1	52
N#CCC1(n2cc(C(N)=O)c(NC(=O)C3CC3)n2)CCC(Nc2ccc(-c3ccco3)cc2)CC1 (stereo not drawn) [Example 276, 1-[1-(cyanomethyl)-4-[4-(2-furyl)anilino]cyclohexyl]-3-(cyclopropanecarbonylamino) pyrazole-4-carboxamide]	0.25	2.2	9
N#CCC1(n2cc(C(N)=O)c(NC(=O)C3CC3)n2)CCN(Cc2ccc(-n3nccn3)c(O)c2)CC1 [Example 277, 1-[4-(cyanomethyl)-1-[[3-hydroxy-4-(triazol-2-yl)phenyl]methyl]-4-piperidyl]-3-(cyclopropanecarbonylamino) pyrazole-4-carboxamide]	0.74	1.9	40
COC(=O)Nc1nn(C2(CC#N)CCN(Cc3ccc(-c4ncco4)cc3)CC2F)cc1C(N)=O (stereo not drawn) [Example 278, methyl N-[4-carbamoyl-1-[4-(cyanomethyl)-3-fluoro-1-[(4-oxazol-2-ylphenyl)methyl]-4-piperidyl]pyrazol-3-yl]carbamate]	1.1	1.3	45
C#Cc1ccc(NC2CCC(CC#N)(n3cc(C(N)=O)c(NC(=O)C4CC4)n3)CC2)cc1 (stereo not drawn) [Example 279, 1-[1-(cyanomethyl)-4-(4-ethynylanilino)cyclohexyl]-3-(cyclopropanecarbonylamino) pyrazole-4-carboxamide]	1.2	14	92
C#Cc1ccc(CN2CCC(CC#N)(n3cc(C(N)=O)c(NC(=O)C4CC4)n3)C(F)C2)c(Cl)c1 (stereo not drawn) [Example 280, 1-[1-[(2-chloro-4-ethynyl-phenyl)methyl]-4-(cyanomethyl)-3-fluoro-4-piperidyl]-3-(cyclopropanecarbonylamino) pyrazole-4-carboxamide]	0.3	0.4	16
COC(=O)Nc1nn(C2(CC#N)CCN(Cc3ccc(C4CC4)cc3)CC2F)cc1C(N)=O (stereo not drawn) [Example 281, methyl N-[4-carbamoyl-1-[4-(cyanomethyl)-1-[(4-cyclopropylphenyl)methyl]-3-fluoro-4-piperidyl]pyrazol-3-yl]carbamate]	1.1	2.2	36
N#CCC1(n2cc(C(N)=O)c(NC(=O)C3CC3)n2)CCC(Nc2ccccc2)CC1 (stereo not drawn) [Example 282, 1-[4-anilino-1-(cyanomethyl)cyclohexyl]-3-(cyclopropanecarbonylamino) pyrazole-4-carboxamide]	0.62	9.6	48
COC(=O)Nc1nn(C2(CC#N)CCN(Cc3cc(C(F)F)ccc3F)CC2F)cc1C(N)=O (stereo not drawn) [Example 283, methyl N-[4-carbamoyl-1-[4-(cyanomethyl)-1-[[5-(difluoromethyl)-2-fluoro-phenyl]methyl]-3-fluoro-4-piperidyl]pyrazol-3-yl]carbamate]	1.4	2.9	77
C=Cc1ccc(CN2CCC(CC#N)(n3cc(C(N)=O)c(NC(=O)OC)n3)C(F)C2)cc1O (stereo not drawn) [Example 284, methyl N-[4-carbamoyl-1-[4-(cyanomethyl)-3-fluoro-1-[(3-hydroxy-4-vinyl-phenyl)methyl]-4-piperidyl]pyrazol-3-yl]carbamate]	0.3	0.5	48
C=Cc1cc(F)c(CN2CCC(CC#N)(n3cc(C(N)=O)c(NC(=O)OC)n3)C(F)C2)cc1O (stereo not drawn) [Example 285, methyl N-[4-carbamoyl-1-[4-(cyanomethyl)-3-fluoro-1-[(2-fluoro-5-hydroxy-4-vinyl-phenyl)methyl]-4-piperidyl]pyrazol-3-yl]carbamate]	0.19	0.23	22
N#CCC1(n2cc(C(N)=O)c(NC(=O)C3CC3)n2)CCN(Cc2ccc(-n3nccn3)c(O)c2)CC1F (stereo not drawn) [Example 286, 1-[4-(cyanomethyl)-3-fluoro-1-[[3-hydroxy-4-(triazol-2-yl)phenyl]methyl]-4-piperidyl]-3-(cyclopropanecarbonylamino) pyrazole-4-carboxamide]	0.43	0.4	52
COC(=O)Nc1nn(C2(CC#N)CCN(Cc3ccc(-n4nccn4)c(O)c3)CC2F)cc1C(N)=O (stereo not drawn) [Example 287, methyl N-[4-carbamoyl-1-[4-(cyanomethyl)-3-fluoro-1-[[3-hydroxy-4-(triazol-2-yl)phenyl]methyl]-4-piperidyl]pyrazol-3-yl]carbamate]	0.35	0.43	32
